This passage reports EC50 results from US7879852B2, “Melanocortin receptor agonists” (LG Life Sciences Ltd., priority 2006, dated 2011).

This test concerns the target T1, human melanocortin receptor 4 (MC4R) (Homo sapiens, UniProt P32245).
T1 construct: expressed in transfected cells; grown with 200 ug/ml Geneticin
Nature of the test: Luciferase assay. Type of test: cell-based. To be noted: agonistic activity at MC4R (Table 18); patent does not state whether luciferase or cAMP assay. Here is the method: Cell lines expressing human melanocortin receptor 4 (MC4R) were dissociated from tissue culture dishes by rinsing with Ca^++, Mg^++ free DPBS, treated with 1× Trypsin/EDTA solution for 1 min at 37° C., and resuspended with DMRM (GIBCO-BRL) supplemented with 10% FBS. The cells were counted and diluted with DMEM supplemented with 10% FBS and 200 ug/ml of Geneticin to […]. 90 ul of cell suspension was plated onto each well of 96-well black and clear bottom culture plates (Costar). After the incubation for 24 h in the atmosphere of 6% CO2 at 37° C., 10 ul of NDP-MSH and test compounds diluted in DMSO were added to each well. The final DMSO concentration was 1%. After 4 h of incubation in the atmosphere of 6% CO2 at 37° C., 50 ul of Bright-Glo (Promega) was added to each well. Luciferase activity was measured by using L-Max luminometer (Molecular Device). The amount of luciferase activity induced by treatment with NDP-MSH was defined as 100% to obtain the relative efficacy of test compounds. The EC0.5 MSH was defined as the concentration of test compounds that results in half maximal activity of NDP-MSH. The EC50 was defined as the concentration of test compound that results in half maximal activity of its own.
For orientation: cAMP levels reflect the balance of adenylyl cyclase and phosphodiesterase activity.

T1 sequence (P32245 whole entry): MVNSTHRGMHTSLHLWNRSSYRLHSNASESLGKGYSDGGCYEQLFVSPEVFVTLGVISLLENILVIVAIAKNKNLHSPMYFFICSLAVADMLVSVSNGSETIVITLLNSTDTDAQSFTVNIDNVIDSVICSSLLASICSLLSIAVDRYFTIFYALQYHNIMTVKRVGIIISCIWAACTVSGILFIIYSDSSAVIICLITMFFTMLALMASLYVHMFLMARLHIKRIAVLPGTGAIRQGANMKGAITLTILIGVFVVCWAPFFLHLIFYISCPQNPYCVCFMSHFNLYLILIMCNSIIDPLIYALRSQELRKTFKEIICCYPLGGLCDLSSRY

In general, EC50 refers to the concentration at which the effect is half-maximal. Read a low EC50 as greater potency. `CCN(C)C(=O)[C@@H]1C[C@H](N(C(=O)[C@@H]2CCCO2)C2CCC(C)(C)CC2)CN1C(=O)[C@@H]1CN(C2CCOCC2)C[C@H]1c1ccc(Cl)cc1` [Example E5-2, (4S)-1-{[(3S,4R)-4-(4-chlorophenyl)-1-(tetrahydro-2H-pyran-4-yl)pyrrolidine-3-yl]carbonyl}-4-{(4,4-dimethylcyclohexyl)[(2S)-tetrahydrofuran-2-ylcarbonyl]amino}-N-ethyl-N-methyl-L-prolineamide] showed an EC50 of 5 nM. This counts as single-digit nanomolar.
In the case of `CCNC(=N)N1C[C@@H](C(=O)N2CC[C@H](N(C(=O)C(C)C)[C@H]3CC[C@@H](C)CC3)C2)[C@H](c2ccc(Cl)cc2)C1` [Example E10, N-[(3S)-1-({(3S,4R)-4-(4-chlorophenyl)-1-[(ethylamino)(imino)methyl]pyrrolidine-3-yl}carbonyl)pyrrolidine-3-yl]2-methyl-N-(cis-4-methylcyclohexyl)propaneamide], the EC50 was 4 nM. The EC50 values of the last two compounds are within 1.5-fold of each other.
For “(4S)-1-[(3S,4R)-1-tert-butyl-4-(4-chlorophenyl)pyrrolidine-3-yl]carbonyl)-4-{(4,4-dimethylcyclohexyl)[(2S)-tetrahydrofuran-2-ylcarbonyl]amino}-N,N-ethylmethyl-L-prolineamide [Example A2]” the value was 16 nM; for “S-(3-{[(3S,5S)-1-{[(3S,4R)-1-tert-butyl-4-(2,4-difluorophenyl)pyrrolidine-3-yl]carbonyl}-5-{[ethyl(methyl)amino]carbonyl}pyrrolidine-3-yl](4,4-dimethylcyclohexyl)amino}-2,2-dimethyl-3-oxopropyl)ethanethioate [Example C13]”, 40 nM.
